The test system of the experiment is HCT116 cells. Nature of the experiment: Cell viability assay (CellTiter-Glo, 72 hours) in HCT116 human colorectal cancer cells. It is filed as cell-based. Put shortly: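 2,000 cells/well adhered overnight, then compound added by digital dispenser with DMSO normalized to 0.5%. Viability read after 72 h at 37 °C by ATP-based CellTiter-Glo luminescence. IC50 from ten-point curves baseline-corrected to vehicle, five-parameter asymmetric least-squares fit.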
(In ATP-based viability assays light output follows the ATP content of the culture.)

Setting [1] is: Table 8, analogs of scaffold drawing 43 defined by R^2, R^3, X/Y, W, read-out: Activity (IC50 class, cell viability assay).
Setting [2] is: Table 5, HCT116, 72 hours, read-out: Activity.
[3] abbreviates: Table 7, cell viability assay, CellTiter-Glo, 72 hours, scaffold drawing 42 with R^2, R^3, X/Y, Z, read-out: Activity.
The mark [4] stands for this setting: Homo sapiens, HCT-116, Table 5, HCT116, 72 hours, read-out: Activity.
The mark [5] stands for this setting: Table 2, HCT116, 72 hours, read-out: Activity.
Where [6] appears, read: Table 9, HCT116, 72 hours, read-out: Activity.
[7] abbreviates: Table 6, HCT116, 72 hours, read-out: Activity.
[8] abbreviates: Table 3, HCT116, 72 hours, read-out: Activity.
The mark [9] stands for this setting: cell viability assay, Table 10 analogs of scaffold drawing 45 defined by R2, R3, X/Y, W, read-out: Activity.

Like-named read-outs stand apart in the source and are kept apart here. Bounds are passed on as bounds.

With `CC#CCN1C(=O)c2ccccc2Sc2cc(NC(=S)N[C@H]3C[C@@H](O)C3)cnc21` [Table 4: —CH2CCMe; cis-3-OH-cBu; N], the IC50 (Table 4, HCT116, 72 hours, read-out: Activity) is under 500 nM.
As for `CON=C1CC2(C1)CC(C(=O)Nc1cnc3c(c1)Sc1ccccc1C(=O)N3CC#CC1CC1)C2` (stereo not drawn), the IC50 under setting [1] was under 500 nM.
Turning to `O=C1c2ccccc2Sc2cc(Nc3cccnn3)ccc2N1CC#CCl`, under setting [2], the IC50 is under 500 nM.
Regarding `CC#CCN1C(=O)c2ccccc2Sc2cc(NC(=O)C3CC4(CC(=NOC)C4)C3)cnc21` (stereo not drawn), the IC50 under setting [1] was under 500 nM.
With `COCCN1C(=O)c2ccccc2Sc2cc(NC(=O)c3cccc(OC)c3)ccc21` [—(CH2)2OMe; 3-MeOPh; CH/CH; S], under setting [3], the IC50 was under 500 nM.
With `CC#CCN1C(=O)c2ccccc2Sc2cc(Nc3nc(C)cnc3C)ccc21` [10-(But-2-yn-1-yl)-7-((3,6-dimethylpyrazin-2-yl)amino)dibenzo[b,f][1,4]thiazepin-11 (10H)-one], under setting [4], the IC50 is under 500 nM.
For `CC#CCN1C(=O)c2ccccc2Sc2cc(Nc3nccc(C)c3F)cnc21`, the IC50 under setting [2] was under 500 nM.
For `CC#CCN1C(=O)c2ccccc2Sc2cc(NC3CCOC3)ccc21` (stereo not drawn) [10-(But-2-yn-1-yl)-7-((tetrahydrofuran-3-yl)amino)dibenzo[b,f][1,4]thiazepin-11 (10H)-one], the IC50 (Homo sapiens, HCT-116, Table 6, HCT116, 72 hours, read-out: Activity) was under 500 nM.
As to `CC#CCN1C(=O)c2ccccc2Sc2cc(NC(=S)N3CCC3)cnc21` [Table 2: —CH2CCMe; azetidin-1-yl; CH; N], the IC50 under setting [5] was under 500 nM.
As to `CC#CCN1C(=O)c2ccccc2C(C)c2cc(NC(=O)C3CC4(CC(=NO)C4)C3)ccc21` (stereo not drawn), the IC50 under setting [6] was under 500 nM.
Take `CC#CCN1C(=O)c2ccccc2Cc2cc(NC3CC(O)C3)ccc21` (stereo not drawn) [Table 6: —CH2CCMe; 3-HOcBu; CH/CH; CH2]: under setting [7], the IC50 was under 500 nM.
For `COc1ccc(C(=O)Nc2ccc3c(c2)Cc2ccccc2C(=O)N3CC#CC(F)(F)F)cc1` [Table 9: —CH2CCCF3; 4-MeOPh; CH2, 4-Methoxy-N-(6-oxo-5-(4,4,4-trifluorobut-2-yn-1-yl)-6, 11-dihydro-5H-dibenzo[b,e]azepin-2-yl)benzamide], the IC50 (Homo sapiens, HCT-116, Table 9, HCT116, 72 hours, read-out: Activity) was under 500 nM.
With `COCCN1C(=O)c2ccccc2Sc2cc(NC(=O)c3cccc(C(F)(F)F)c3)ccc21` [—(CH2)2OMe; 3-CF3Ph; CH/CH; S], the IC50 under setting [3] is 1000 to 5000 nM.
Regarding `CC#CCN1C(=O)c2ccccc2Sc2cc(NC3CC4(CC(=O)C4)C3)cnc21`, under setting [7], the IC50 is under 500 nM.
Turning to `CC#CCN1C(=O)c2ccccc2C(C#N)c2cc(NC(=O)C3CC4(CC(=NO)C4)C3)ccc21` (stereo not drawn), the IC50 under setting [6] is under 500 nM.
`COCCN1C(=O)c2ccccc2Sc2cc(NC(=O)c3ccno3)ccc21` [—(CH2)2OMe; isoxazol-5-yl; CH/CH; S]: the IC50 under setting [3] lay within 1000 to 5000 nM.
On to `CCC/C=C/CN1C(=O)c2ccccc2Sc2cc(Nc3nccnc3C#N)ccc21` [(E)-3-((10-(Hex-2-en-1-yl)-11-oxo-10,11-dihydrodibenzo[b,f][1,4]thiazepin-7-yl)amino) pyrazine-2-carbonitrile], for which the IC50 under setting [4] fell in the range of 500 to 1000 nM.
Regarding `CC#CCN1C(=O)c2ccccc2Sc2cc(NC(=O)[C@H]3C[C@H](O)C3)ccc21` [—CH2CCMe; trans-3-OH-cBu; CH/CH; CH], the IC50 under setting [1] is under 500 nM.
Consider `CC#CCN1C(=O)c2ccccc2Sc2cc(NC3CCCOC3)cnc21` (stereo not drawn), for which the IC50 under setting [7] is under 500 nM.
On to `CC#CCN1C(=O)c2cc(F)ccc2Sc2cc(NC(=O)c3ccc4oc(=O)n(C)c4c3)ccc21`, for which the IC50 under setting [1] was under 500 nM.
As to `COCCN1C(=O)c2ccccc2Sc2cc(NC(=O)c3ccc(OC(F)(F)F)cc3)ccc21` [—(CH2)2OMe; 4-CF3OPh; CH/CH; S], the IC50 under setting [3] fell in the range of 1000 to 5000 nM.
On to `COCC1CC1C(=O)Nc1cnc2c(c1)Sc1ccccc1C(=O)N2CC#CC1CC1` (racemic) [—CH2CC^cPr; trans-2-MeOCH2-cPr; CH/CH; N], for which, under setting [1], the IC50 was under 500 nM.
Turning to `COCCN1C(=O)c2ccccc2Sc2cc(NC(=O)c3ccc(OC(F)F)cc3)ccc21` [—(CH2)2OMe; 4-F2HCOPh; CH/CH; S], the IC50 under setting [3] is 500 to 1000 nM.
Take `CC#CCN1C(=O)c2ccccc2Sc2cc(NC(=O)Nc3ccc4oc(=O)n(C)c4c3)ccc21`: under setting [8], the IC50 was under 500 nM.
For `CC#CCN1C(=O)c2ccccc2Sc2cc(NC(=O)N3CCC3)ccc21` [Table 1: —CH2CCMe; azetidin-1-yl; CH; CH, N-(10-(But-2-yn-1-yl)-11-oxo-10,11-dihydrodibenzo[b,f][1,4]thiazepin-7-yl) azetidine-1-carboxamide], the IC50 (Homo sapiens, HCT-116, Table 1, HCT116, 72 hours, read-out: Activity) is under 500 nM.
In the case of `COCCN1C(=O)c2ccccc2Sc2cc(NC(=O)c3ccc4ccccc4c3)ccc21` [—(CH2)2OMe; 2-naphtyl; CH/CH; S], under setting [3], the IC50 was 1000 to 5000 nM.
Take `CC#CCN1C(=O)c2ccccc2Sc2cc(NC(=O)C34CC(OC)(C3)C4)ccc21`: the IC50 under setting [9] is under 500 nM.
On to `O=C1CC2(C1)CC(C(=O)Nc1cnc3c(c1)Sc1ccccc1C(=O)N3CC#CC1CC1)C2`, for which, under setting [1], the IC50 was under 500 nM.
As for `CC12CC(C(=O)Nc3cnc4c(c3)Sc3ccccc3C(=O)N4CC#CC3CC3)(C1)C2`, the IC50 under setting [1] is under 500 nM.
Take `CC#CCN1C(=O)c2ccccc2Sc2cc(Nc3cccnc3)ccc21` [10-(But-2-yn-1-yl)-7-(pyridin-3-ylamino)dibenzo[b,f][1,4]thiazepin-11 (10H)-one]: under setting [4], the IC50 is under 500 nM.
Regarding `CC#CCN1C(=O)c2ccccc2Sc2cc(NC(=O)C3CCCC3)cnc21` [—CH2CCMe; cPent; CH/CH; N], the IC50 under setting [1] was under 500 nM.
The same measure, in the same setting: the figure for `N#CC12CC(C(=O)Nc3cnc4c(c3)Sc3ccccc3C(=O)N4CC#CC3CC3)(C1)C2` is under 500 nM.
Turning to `CCC/C=C/CN1C(=O)c2ccccc2Sc2cc(Nc3ncc(C)cc3C)ccc21` [(E)-7-((3,5-Dimethylpyridin-2-yl)amino)-10-(hex-2-en-1-yl)dibenzo[b,f][1,4]thiazepin-11 (10H)-one], the IC50 under setting [4] was under 500 nM.
For `COCC=CC(=O)Nc1ccc2c(c1)C(C)c1ccccc1C(=O)N2CC#CC1CC1` (stereo not drawn) [Table 9: —CH2CC^cPr; CH═CHCH2OMe; CHMe], the IC50 under setting [6] is under 500 nM.
`CCC/C=C/CN1C(=O)c2ccccc2Sc2cc(Nc3cc(C#N)ccn3)ccc21` [(E)-2-((10-(Hex-2-en-1-yl)-11-oxo-10,11-dihydrodibenzo[b,f][1,4]thiazepin-7-yl)amino) isonicotinonitrile]: the IC50 under setting [4] lay within 500 to 1000 nM.
For the molecule `CO[C@H]1C[C@@H](C(=O)Nc2cnc3c(c2)Sc2cc(Cl)ccc2C(=O)N3CC#CCl)C1` [—CH2CCCl; cis-3-MeOcBu; CCl/CH; N], the IC50 under setting [1] was under 500 nM.
On to `COCCN1C(=O)c2ccccc2Sc2cc(NC(=O)c3ccc(F)c(F)c3)ccc21` [—(CH2)2OMe; 3,4-F2Ph; CH/CH; S], for which the IC50 under setting [3] fell in the range of 1000 to 5000 nM.
`CC#CCN1C(=O)c2ccccc2Sc2cc(NC(=O)c3ccoc3)ccc21` [—CH2CCMe; furan-3-yl; CH/CH; CH]: the IC50 under setting [1] was under 500 nM.
With `COCCN1C(=O)c2ccccc2Sc2cc(NC(=O)c3cccc(CCC#N)c3)ccc21` [—(CH2)2OMe; 3-(2′-CNEt)Ph; CH/CH; S], the IC50 under setting [3] was under 500 nM.
`CCCC=CCN1C(=O)c2ccccc2Sc2cc(Nc3nccnc3C)cnc21`: the IC50 under setting [2] was under 500 nM.
For the molecule `CC#CCN1C(=O)c2ccccc2Sc2cc(NC(=O)NC3CC(COC)C3)cnc21` (stereo not drawn) [Table 3: —CH2CCMe; 3-MeOCH2-cBu; CH/N], the IC50 under setting [8] was under 500 nM.
In the case of `C#CCOCCN1C(=O)c2ccccc2Cc2cc(NC(=O)c3ccc(OC)cc3)ccc21` [—(CH2)2OCH2CCH; 4-MeOPh; CH/CH; CH2], under setting [3], the IC50 was under 500 nM.
Take `COCCN1C(=O)c2ccccc2Sc2cc(NC(=O)c3ccncn3)ccc21` [—(CH2)2OMe; pyrimidin-4-yl; CH/CH; S]: the IC50 under setting [3] fell in the range of 1000 to 5000 nM.
For the molecule `CC#CCN1C(=O)c2ccccc2Sc2cc(NC(=O)c3ccc(OC(F)(F)F)cc3)ccc21` [—CH2CCMe; 4-CF3OPh; CH/CH; CH], under setting [1], the IC50 was under 500 nM.
`CC#CCN1C(=O)c2ccccc2C(C)c2cc(NC(=O)C3CCOC3)ccc21` (stereo not drawn): the IC50 under setting [6] is under 500 nM.
As to `CC#CCN1C(=O)c2ccccc2Sc2cc(Nc3cccnn3)ccc21` [10-(But-2-yn-1-yl)-7-(pyridazin-3-ylamino)dibenzo[b,f][1,4]thiazepin-11 (10H)-one], the IC50 under setting [4] is under 500 nM.
For `CC#CCN1C(=O)c2ccccc2Sc2cc(NC(=S)Nc3ccc(OC(F)F)cc3)ccc21` [Table 4: —CH2CCMe; 4-F2HCOPh; CH, 1-(10-(But-2-yn-1-yl)-11-oxo-10,11-dihydrodibenzo[b,f][1,4]thiazepin-7-yl)-3-(4-(difluoromethoxy)phenyl)thiourea], where the note is “Homo sapiens, HCT-116, Table 4, HCT116, 72 hours, read-out: Activity”, the IC50 is under 500 nM.
Take `C#CCN1C(=O)c2ccccc2C(C#N)c2cc(NC(=O)C3CC(COC)C3)ccc21` (stereo not drawn) [Table 9: —CH2CCH; 3-MeOCH2-cBu; CHCN]: under setting [6], the IC50 was under 500 nM.
As for `CC#CCN1C(=O)c2ccccc2Sc2cc(NC(=S)N3CCCCC3)ccc21`, the IC50 under setting [5] is under 500 nM.
As to `COCCN1C(=O)c2ccccc2Sc2cc(NC(=O)C3CC34CC4)ccc21` (stereo not drawn) [—(CH2)2OMe; spiro[2.2]pentanyl; CH/CH; S], under setting [3], the IC50 lay within 1000 to 5000 nM.
In the case of `COCC1CC1C(=O)Nc1ccc2c(c1)C(C)(O)c1ccccc1C(=O)N2CC#CC1CC1` (racemic), under setting [6], the IC50 was under 500 nM.
Regarding `CC#CCN1C(=O)c2ccccc2Sc2cc(Nc3nc(C)ccc3F)cnc21`, the IC50 under setting [2] was under 500 nM.
`CC#CCN1C(=O)c2ccc(Cl)cc2Sc2cc(NC(=O)[C@H]3C[C@H](OC)C3)ccc21` [—CH2CCMe; trans-3-MeOcBu; CCl/CH; CH]: the IC50 is, setting by setting: under setting [1], under 500 nM; under setting [9], under 500 nM.
